{"source": "paper PMC8453901", "about": "“GLPG1205, a GPR84 Modulator: Safety, Pharmacokinetics, and Pharmacodynamics in Healthy Subjects” (Clinical Pharmacology in Drug Development, 2021)", "experiment": "Study 1 MAD part: plasma and urine pharmacokinetics, once daily for 14 days", "assay_type": "in vivo, human", "conditions": "for AUC / Cmax / Tmax / half-life: male, human, plasma, oral; for AUC: dosing interval 24 hours; for Tmax: median (minimum-maximum)", "method": "GLPG1205 or matching placebo were administered as an oral nanosuspension in the morning in a fed condition as an outpatient. For both the single ascending doses (SADs) and multiple ascending doses (MADs) parts of the study, subjects attended a screening visit (21 to 2 days before first study drug administration) and a follow‐up visit (7 to 10 days after the last dose).\nIn the MAD part of study 1, 24 healthy male subjects in 3 cohorts (C, D, and E; n = 8 each) each received GLPG1205 or matching placebo once daily for 14 days. Cohorts C, D, and E received GLPG1205 50 mg once daily or matching placebo, GLPG1205 100 mg once daily or matching placebo, and GLPG1205 200 mg once daily or matching placebo, respectively. Within a cohort, subjects were randomized to receive GLPG1205 or matching placebo in a 3:1 ratio. An interval of at least 6 days was enforced between cohorts. Subjects were kept in‐house from the evening of day –1 until ≈26 hours after first dosing (morning of day 2), and from the evening of day 13 to the morning of day 15. Administration of the study drug was performed daily at the clinical pharmacology unit.\nIn the SAD part of study 1, blood samples (2 mL) for PK assessments were obtained before dosing and at multiple time points on the day of study drug administration (before dosing and 0.5, 1, 2, 4, 6, 8, and 12 hours after dosing) and at 24, 48, and 72 hours after dosing. The predose sample for the next dose level was also used in PK analysis (168 hours after dosing). […] In the MAD part of study 1, blood samples (2 mL) were obtained on days 1, 2, 4, 5, 6, 8, 10, 12, 14, 15, 16, 17, and 18 and at follow‐up (approximately 7 to 10 days after the last dose). These PK blood samples were taken after dosing (1, 2, 4, 6, 8, 12, and 24 hours) on day 1; before dosing on days 4, 6, 8, and 10; and after dosing (1, 2, 4, 6, 8, 12, 24, 72, and 96 hours) on day 14. The following additional PK blood samples were also taken: cohort C, before dosing on day 5; and cohorts D and E, before dosing on day 12. Urine samples were obtained from fractions collected over 6‐ or 12‐hour periods after dosing on days –1, 1, 2, 13, 14, and 15; samples obtained on days –1 and 13 were for cytochrome P450 (CYP) induction analysis only. In study 2, blood samples (2 mL) were obtained on days 1, 2, 5, 7, 10, 14, 15, 17, and 20 and at follow‐up (approximately 21 days after end of study medication administration). Blood samples were taken before dosing and at 1, 2, 4, 6, 8, 12, and 24 hours after drug administration on days 1 and 14 and before dosing on other sampling days.\nBlood samples were immediately chilled (ice bath), and the plasma was separated by centrifugation (4°C for 10 minutes at ≈1500 g) within 30 minutes of blood collection.\nGLPG1205 plasma concentrations were determined using a validated liquid chromatography with tandem mass spectrometry method. After a protein precipitation with methanol, a chromatographic separation was performed on a Kinetex C18 column (50×3.0 mm, 2.6 μm; Phenomenex, Torrance, California) set at 40°C by using a Nexera high‐performance liquid chromatography (HPLC) system (Shimadzu, Kyoto, Japan) or an Infinity HPLC system (Agilent Technologies, Diegem, Belgium) in isocratic elution mode. A QTRAP6500, QTRAP4000, or API4000 mass spectrometer (AB Sciex, Nieuwerkerk aan den Ijssel, The Netherlands) equipped with a TurboIonSpray probe operated in the multiple reaction monitoring in positive mode was used for quantification. The calibration curves in plasma were linear over the range of 1 to 1000 ng/mL with 1/x^2 as weighting factor. The limit of quantification of the assay in the plasma samples was set at 1 ng/mL.\nGLPG1205 concentrations in urine fractions were determined by using a qualified liquid chromatography with tandem mass spectrometry method derived from the plasma method. […]", "key": {"[1]": {"conditions": "50 mg, 50 mg once daily, day 1, mean (CV%)"}, "[2]": {"conditions": "50 mg, 50 mg once daily, day 14, mean (CV%)"}, "[3]": {"conditions": "100 mg, 100 mg once daily, day 1, mean (CV%)"}, "[4]": {"conditions": "100 mg, 100 mg once daily, day 14, mean (CV%)"}, "[5]": {"conditions": "200 mg, 200 mg once daily, day 1, mean (CV%)"}}, "note": "Entries after “also recorded” stand apart in the source; their conditions may differ. Where two headings read alike, the source gives them in different places.", "data": [{"compound": "O=c1nc(OC[C@@H]2COCCO2)cc2n1CCc1cc(C#CC3CC3)ccc1-2", "note": "[GLPG1205, 9‐cyclopropylethynyl‐2‐((S)‐1‐[1,4]dioxan‐2‐ylmethoxy)‐6,7‐dihydropyrimido[6,1‐a]isoquinolin‐4‐one]", "values": [{"measurement": "Ae(Τ), amount excreted in urine over 24 hours", "setting": "50 mg once daily, day 1, mean (CV%)", "value": "0.0785 (22.9) % dose"}, {"measurement": "Ae(Τ), amount excreted in urine over 24 hours", "setting": "50 mg once daily, day 14, mean (CV%), N = 5", "value": "0.428 (22.0)^N = 5 % dose"}, {"measurement": "Ae(Τ), amount excreted in urine over 24 hours", "setting": "100 mg once daily, day 1, mean (CV%), N = 4", "value": "0.0746 (30.1)^N = 4 % dose"}, {"measurement": "Ae(Τ), amount excreted in urine over 24 hours", "setting": "100 mg once daily, day 14, mean (CV%)", "value": "0.480 (27.2) % dose"}, {"measurement": "Ae(Τ), amount excreted in urine over 24 hours", "setting": "200 mg once daily, day 1, mean (CV%)", "value": "0.123 (27.0) % dose"}, {"measurement": "dose-proportionality of steady-state exposure (Cmax and AUCΤ)", "setting": "50 to 100 mg once daily", "value": "increased in proportion with the dose; also recorded: increased proportionally with the dose"}, {"measurement": "excretion of unchanged GLPG1205 in urine over 24 hours", "setting": "at steady state on day 14", "value": "< 0.48 % of the administered dose"}, {"measurement": "AUC", "setting": "[1]", "value": 7580, "unit": "ng·h/mL"}, {"measurement": "Cmax", "setting": "[1]", "value": 469, "unit": "ng/mL"}, {"measurement": "Tmax", "setting": "50 mg, 50 mg once daily, day 1", "value": 3, "unit": "h"}, {"measurement": "AUC", "setting": "[2]", "value": 41300, "unit": "ng·h/mL"}, {"measurement": "Cmax", "setting": "[2]", "value": 2050, "unit": "ng/mL"}, {"measurement": "half-life", "setting": "50 mg, 50 mg once daily, day 14, mean (CV%), read-out: t1/2,λz (converted)", "value": 76.7, "unit": "h"}, {"measurement": "Tmax", "setting": "50 mg, 50 mg once daily, day 14", "value": 4, "unit": "h"}, {"measurement": "AUC", "setting": "[3]", "value": 14400, "unit": "ng·h/mL"}, {"measurement": "Cmax", "setting": "[3]", "value": 875, "unit": "ng/mL"}, {"measurement": "Tmax", "setting": "100 mg, 100 mg once daily, day 1", "value": 4, "unit": "h"}, {"measurement": "AUC", "setting": "[4]", "value": 82700, "unit": "ng·h/mL"}, {"measurement": "Cmax", "setting": "[4]", "value": 3910, "unit": "ng/mL"}, {"measurement": "half-life", "setting": "100 mg, 100 mg once daily, day 14, mean (CV%), read-out: t1/2,λz (converted)", "value": 88.6, "unit": "h"}, {"measurement": "Tmax", "setting": "100 mg, 100 mg once daily, day 14", "value": 4, "unit": "h"}, {"measurement": "AUC", "setting": "[5]", "value": 42900, "unit": "ng·h/mL"}, {"measurement": "Cmax", "setting": "[5]", "value": 2450, "unit": "ng/mL"}, {"measurement": "Tmax", "setting": "200 mg, 200 mg once daily, day 1", "value": 3, "unit": "h"}, {"measurement": "Cmax", "setting": "200/150 mg once daily (150 mg as of day 8), day 14, n = 3, mean (CV%)", "value": 8900, "unit": "ng/mL"}, {"measurement": "AUC", "setting": "200/150 mg once daily, day 14, n = 3, mean (CV%)", "value": 195000, "unit": "ng·h/mL"}, {"measurement": "half-life", "setting": "200/150 mg once daily, day 14, n = 3, mean (CV%), read-out: t1/2,λz (converted)", "value": 141, "unit": "h"}, {"measurement": "Tmax", "setting": "200/150 mg once daily, day 14, n = 3", "value": 12, "unit": "h"}, {"measurement": "half-life", "setting": "once-daily dosing for 14 days, read-out: t1/2,λz range", "value": "76.7 to 141", "unit": "h"}, {"measurement": "time to steady state in plasma concentrations", "setting": "once-daily dosing for 14 days, irrespective of dose (by day 10)", "value": 9, "unit": "dosing days"}]}]}
